According to patent US9133235B2, “Macrocyclic antagonists of the motilin receptor for treatment of gastrointestinal dysmotility disorders” (Ocera Therapeutics, Inc., priority 2006, dated 2015):
Read-outs that look alike come from different tables or passages of the source.

What was measured:
[1] = Pharmacokinetic analysis in rat (i.v., s.c., p.o.); type: in vivo; settings: for half-life: read-out: Elimination (t1/2, min)
From the text: I. Pharmacokinetic Analysis of Representative Compounds of the Invention
The pharmacokinetic behavior of compound of the invention can be ascertained by methods well known to those skilled in the art. (Wilkinson, G. R. “Pharmacokinetics: The Dynamics of Drug Absorption, Distribution, and Elimination” in Goodman & Gilman's The Pharmacological Basis of Therapeutics, Tenth Edition, Hardman, J. G.; Limbird, L. E., Eds., McGraw Hill, Columbus, Ohio, 2001, Chapter 1.) The following method was used to investigate the pharmacokinetic parameters (elimination half-life, total plasma clearance, etc.) for intravenous, subcutaneous and oral administration of compounds of the present invention.
Rats: male, Sprague-Dawley (˜250 g)
Rats/Treatment Group: 6 (2 subsets of 3 rats each, alternate bleeds)
Each sample of test compound was sent in solution in a formulation (such as with cyclodextrin) appropriate for dosing. It will be appreciated by one skilled in the art that appropriate modifications to this protocol can be made as required to adequately test the properties of the compound under analysis.
1. Intravenous (i.v.): 2 mg/kg
2. Subcutaneous(s.c): 2 mg/kg
Plasma Collection 1. Same protocol for all dosing groups 2. For each group, 2 subsets (A and B) of 3 rats/subset
At the time intervals indicated above, 0.7 mL of blood were collected from each animal. It is expected that this volume of blood will yield a sample of at least 0.3 mL of plasma. EDTA was used as an anti-coagulant for whole blood collection. Whole blood samples were chilled and immediately processed by centrifugation to obtain plasma.
Plasma samples were stored frozen (−70° C.) until analysis. Analytical detection of parent compound in plasma samples performed by LC-MS after an appropriate preparation protocol: extraction using solid phase extraction (SPE) cartridges (Oasis MCX, Oasis HLB) or liquid-liquid extraction.
Column: Atlantis dC18 from Waters 2.1×30 mm
A: 95% MeOH, 5% water, 0.1% TFA
B: 95% water, 5% MeOH, 0.1% TFA
The analyte was quantitated based upon a standard curve and the method validated with internal standards.

CYP1A2 = target: T1, CYP1A2 (Homo sapiens, UniProt P05177); assay: Cytochrome P450 inhibition, CYP1A2; type: in vitro ADME; settings: Supersomes; read-out: IC50 (μM) 1A2
T1 construct: purchased BD Gentest, Becton-Dickinson (Supersomes); host or cells: insect cells (microsomes)
T1 sequence (P05177 1-516): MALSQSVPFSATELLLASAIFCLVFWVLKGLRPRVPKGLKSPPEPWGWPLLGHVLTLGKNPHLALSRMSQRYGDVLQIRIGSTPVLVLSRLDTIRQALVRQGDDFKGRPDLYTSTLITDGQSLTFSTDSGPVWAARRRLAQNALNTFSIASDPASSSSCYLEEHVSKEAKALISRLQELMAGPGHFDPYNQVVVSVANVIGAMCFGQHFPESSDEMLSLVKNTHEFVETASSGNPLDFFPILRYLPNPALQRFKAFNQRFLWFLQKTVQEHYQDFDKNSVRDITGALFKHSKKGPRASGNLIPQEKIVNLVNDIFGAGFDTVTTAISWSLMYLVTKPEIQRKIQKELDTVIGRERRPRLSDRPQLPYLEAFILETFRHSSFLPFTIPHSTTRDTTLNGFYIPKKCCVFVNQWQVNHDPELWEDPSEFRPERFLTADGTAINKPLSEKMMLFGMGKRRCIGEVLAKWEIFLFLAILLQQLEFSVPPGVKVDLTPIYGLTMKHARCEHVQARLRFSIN
From the text: (§1) F. Assay for Cytochrome P450 Inhibition
(§2) Cytochrome P450 enzymes are implicated in the phase I metabolism of drugs. The majority of drug-drug interactions are metabolism-based and, moreover, these interactions typically involve inhibition of cytochrome P450s. Six CYP450 enzymes (CYP1A2, CYP2C8, CYP2C9, CYP2C19, CYP2D6 and CYP3A4) appear to be commonly responsible for the metabolism of most drugs and the associated drug-drug interactions. Assays to determine the binding of compounds of the invention to the various metabolically important isoforms of cytochrome P450 metabolizing enzymes are commercially available, for example NoAb BioDiscoveries (Mississaugua, ON, Canada) and Absorption Systems (Exton, Pa., USA). As well, a number of appropriate methods have been described or reviewed in the literature. (White, R. E. Ann. Rev. Pharmacol. Toxicol. 2000, 40, 133-157; Li, A. P. Drug. Disc. Today 2001, 6, 357-366; Turpeinen, M.; Korhonen, L. E. Tolonen, A.; et al. Eur. J. Pharm. Sci. 2006, 29, 130-138.)
(§3) The concentration of the inhibitor or test compound that inhibited metabolite formation by 50% (IC50) was calculated by non-linear regression analysis of the % inhibition vs. log concentration (M) curve.

CYP2A6 = target: T2, CYP2A6 (Homo sapiens, UniProt P11509); assay: Cytochrome P450 inhibition, CYP2A6; type: in vitro ADME; settings: Supersomes; read-out: IC50 (μM) 2A6
T2 construct: purchased BD Gentest, Becton-Dickinson (Supersomes); host or cells: insect cells (microsomes)
T2 sequence (P11509 1-494): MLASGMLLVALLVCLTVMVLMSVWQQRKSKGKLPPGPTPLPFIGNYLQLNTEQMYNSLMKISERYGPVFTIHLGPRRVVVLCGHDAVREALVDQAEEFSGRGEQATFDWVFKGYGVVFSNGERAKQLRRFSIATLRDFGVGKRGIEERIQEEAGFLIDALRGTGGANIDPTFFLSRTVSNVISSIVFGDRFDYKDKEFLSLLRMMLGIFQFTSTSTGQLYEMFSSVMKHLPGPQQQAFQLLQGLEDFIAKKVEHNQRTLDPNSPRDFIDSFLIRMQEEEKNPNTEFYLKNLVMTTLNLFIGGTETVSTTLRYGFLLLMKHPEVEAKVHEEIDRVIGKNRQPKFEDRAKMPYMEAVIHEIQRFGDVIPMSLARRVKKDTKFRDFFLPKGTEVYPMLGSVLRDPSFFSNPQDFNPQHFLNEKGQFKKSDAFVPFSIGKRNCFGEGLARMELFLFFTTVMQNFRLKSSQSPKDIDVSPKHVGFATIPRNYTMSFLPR
From the text: as §1, §2, §3

CYP2C9 = target: T3, CYP2C9 (Homo sapiens, UniProt P11712); assay: Cytochrome P450 inhibition, CYP2C9; type: in vitro ADME; settings: Supersomes; read-out: IC50 (μM) 2C9
T3 construct: purchased BD Gentest, Becton-Dickinson (Supersomes); host or cells: insect cells (microsomes)
T3 sequence (P11712 whole entry): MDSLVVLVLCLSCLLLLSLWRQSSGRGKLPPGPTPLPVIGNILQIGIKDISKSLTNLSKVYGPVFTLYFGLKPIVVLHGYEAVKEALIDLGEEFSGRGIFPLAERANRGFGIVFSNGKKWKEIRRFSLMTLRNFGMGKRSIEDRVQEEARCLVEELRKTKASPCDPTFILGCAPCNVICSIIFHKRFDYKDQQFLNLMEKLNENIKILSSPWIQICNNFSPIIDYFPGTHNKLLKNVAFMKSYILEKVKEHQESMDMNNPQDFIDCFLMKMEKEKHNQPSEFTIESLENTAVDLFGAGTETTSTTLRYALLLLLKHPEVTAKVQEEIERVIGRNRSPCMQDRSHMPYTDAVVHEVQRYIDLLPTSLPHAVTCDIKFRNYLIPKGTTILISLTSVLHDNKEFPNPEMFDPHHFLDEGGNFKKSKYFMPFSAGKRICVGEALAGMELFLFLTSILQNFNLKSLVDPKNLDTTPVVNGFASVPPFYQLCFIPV
From the text: as §1, §2, §3

CYP2C19 = target: T4, CYP2C19 (Homo sapiens, UniProt P33261); assay: Cytochrome P450 inhibition, CYP2C19; type: in vitro ADME; settings: Supersomes; read-out: IC50 (μM) 2C19
T4 construct: purchased BD Gentest, Becton-Dickinson (Supersomes); host or cells: insect cells (microsomes)
T4 sequence (P33261 whole entry): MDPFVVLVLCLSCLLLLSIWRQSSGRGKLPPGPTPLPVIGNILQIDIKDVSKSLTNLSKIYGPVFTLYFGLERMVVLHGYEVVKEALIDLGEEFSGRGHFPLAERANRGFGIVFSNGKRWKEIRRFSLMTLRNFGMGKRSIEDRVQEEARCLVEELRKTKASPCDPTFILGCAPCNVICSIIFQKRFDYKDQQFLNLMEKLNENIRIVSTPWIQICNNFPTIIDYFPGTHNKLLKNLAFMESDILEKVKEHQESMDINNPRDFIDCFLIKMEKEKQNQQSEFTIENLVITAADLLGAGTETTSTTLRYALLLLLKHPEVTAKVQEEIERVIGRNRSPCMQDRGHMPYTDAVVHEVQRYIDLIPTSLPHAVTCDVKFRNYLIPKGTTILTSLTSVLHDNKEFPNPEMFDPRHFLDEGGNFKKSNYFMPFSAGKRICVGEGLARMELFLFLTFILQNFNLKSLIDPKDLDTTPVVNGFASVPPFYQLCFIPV
From the text: as §1, §2, §3

CYP2D6 = target: T5, CYP2D6 (Homo sapiens, UniProt P10635); assay: Cytochrome P450 inhibition, CYP2D6; type: in vitro ADME; settings: Supersomes; read-out: IC50 (μM) 2D6
T5 construct: purchased BD Gentest, Becton-Dickinson (Supersomes); host or cells: insect cells (microsomes)
T5 sequence (P10635 whole entry): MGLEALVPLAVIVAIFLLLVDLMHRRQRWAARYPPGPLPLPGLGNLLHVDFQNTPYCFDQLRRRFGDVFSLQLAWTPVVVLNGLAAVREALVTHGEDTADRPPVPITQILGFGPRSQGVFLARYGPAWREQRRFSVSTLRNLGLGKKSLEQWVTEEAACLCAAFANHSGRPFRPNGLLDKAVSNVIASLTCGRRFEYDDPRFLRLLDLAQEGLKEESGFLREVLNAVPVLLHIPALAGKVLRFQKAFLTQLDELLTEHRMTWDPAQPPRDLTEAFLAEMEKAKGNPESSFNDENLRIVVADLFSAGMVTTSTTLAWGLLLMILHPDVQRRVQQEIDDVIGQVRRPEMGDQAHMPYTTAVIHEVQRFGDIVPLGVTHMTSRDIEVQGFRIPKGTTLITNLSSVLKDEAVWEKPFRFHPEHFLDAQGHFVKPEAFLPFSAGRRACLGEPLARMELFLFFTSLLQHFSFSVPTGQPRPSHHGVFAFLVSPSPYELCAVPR
From the text: as §1, §2, §3

CYP2E1 = target: T6, CYP2E1 (Homo sapiens, UniProt P05181); assay: Cytochrome P450 inhibition, CYP2E1; type: in vitro ADME; settings: Supersomes; read-out: IC50 (μM) 2E1
T6 construct: purchased BD Gentest, Becton-Dickinson (Supersomes); host or cells: insect cells (microsomes)
T6 sequence (P05181 whole entry): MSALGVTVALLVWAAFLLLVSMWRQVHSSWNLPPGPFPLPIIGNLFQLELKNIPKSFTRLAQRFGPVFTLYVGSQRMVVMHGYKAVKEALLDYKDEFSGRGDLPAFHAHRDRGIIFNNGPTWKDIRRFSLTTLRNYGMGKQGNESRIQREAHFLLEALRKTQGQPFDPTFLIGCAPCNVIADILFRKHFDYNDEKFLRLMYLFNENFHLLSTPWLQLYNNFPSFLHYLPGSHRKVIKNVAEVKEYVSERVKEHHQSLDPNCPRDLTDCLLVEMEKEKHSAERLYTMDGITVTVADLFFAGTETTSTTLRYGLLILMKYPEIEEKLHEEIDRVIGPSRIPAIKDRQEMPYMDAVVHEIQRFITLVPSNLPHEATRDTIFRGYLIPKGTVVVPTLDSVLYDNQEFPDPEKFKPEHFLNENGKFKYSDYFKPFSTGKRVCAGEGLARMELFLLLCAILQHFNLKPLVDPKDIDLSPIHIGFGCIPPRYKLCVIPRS
From the text: as §1, §2, §3

| Clearance ([1]; i.v.) | Elimination (t1/2, min) ([1]; i.v., typical dose 2 mg/kg) | Clearance ([1]; s.c.) | Elimination (t1/2, min) ([1]; s.c., typical dose 2 mg/kg) | IC50 (CYP1A2) | IC50 (CYP2A6) | IC50 (CYP2C9) | IC50 (CYP2C19) | IC50 (CYP2D6) | IC50 (CYP2E1) | Elimination (t1/2, min) ([1]; p.o., typical dose 8 mg/kg, without cyclodextrin) | Bioavailability (oral) ([1]; p.o., without cyclodextrin) | Clearance ([1]; male, Sprague-Dawley, plasma, iv, 1.9 mg/kg, i.v., read-out: Clearance) | half-life ([1]; male, Sprague-Dawley, plasma, iv, typical dose 2 mg/kg) | bioavailability ([1]; male, Sprague-Dawley, plasma, po, 8 mg/kg, in the presence of 10% beta-cyclodextrin) | half-life ([1]; male, Sprague-Dawley, plasma, po, typical dose 8 mg/kg, in the presence of 10% beta-cyclodextrin) | half-life ([1]; male, Sprague-Dawley, plasma, sc, typical dose 2 mg/kg) | Structure (SMILES) |
| --- | --- | --- | --- | --- | --- | --- | --- | --- | --- | --- | --- | --- | --- | --- | --- | --- | --- |
| 57 mL/min/kg | 102 min | 79 mL/min/kg | 146 min |  |  |  |  |  |  |  |  |  |  |  |  |  | CC(C)[C@H]1NC(=O)[C@@H](Cc2cccc(C(F)(F)F)c2)NCCOc2ccccc2CCCNC(=O)[C@H](CN(C)C)NC1=O [Compound 502] |
| 33 mL/min/kg | 139 min |  |  | > 100 µM | > 100 µM | 26.9 µM | 37 µM | 30.1 µM | > 100 µM | 70 to 125 min | 6% |  |  |  |  |  | CCC[C@@H]1NC(=O)[C@@H](C(C)C)NC(=O)[C@@H](Cc2cccc(F)c2)N[C@@H](C)COc2ccccc2CCCNC1=O [Compound 551] |
|  |  | 39 mL/min/kg |  |  |  |  |  |  |  |  |  | 45 mL/min/kg | 24 min | 10% | 307 min | 103 min | CCC[C@@H]1NC(=O)[C@@H](C(C)C)NC(=O)[C@@H](Cc2ccc(O)c(Cl)c2)N[C@@H](C)COc2ccccc2CCCNC1=O [Compound 552] |
|  |  |  |  | > 100 µM | > 100 µM | 44.5 µM | > 100 µM | 80.8 µM | > 100 µM |  |  |  |  |  |  |  | CCC[C@@H]1NC(=O)[C@@H](C(C)C)NC(=O)[C@@H](Cc2ccc(O)c(C(C)(C)C)c2)NCCOc2ccccc2CCCNC1=O [Compound 553] |
